Data set [1] deals with metastatic NSCLC with a genetic mutation. Briefly: Case report Example 1: metastatic NSCLC patient on daily oral erlotinib. Format: in vivo, human. As to conditions: person, 150 mg daily oral. The source says:
(§1) A person, whose child has a history of recurrent-remitting MS, developed severe back pain. […] After one year, their serum level of antithyroid peroxidase was reduced from 1719 to 366.

In data set [2] the test system is mild plaque psoriasis. Briefly: Case report Example 1: psoriasis under erlotinib. Type of data set: in vivo, human. To be noted: person, 150 mg daily oral.
Description: as §1

Data set [3] relates to type 2 insulin requiring diabetes mellitus. Briefly: Case report Example 1: diabetes / insulin requirement under erlotinib. Format: in vivo, human. To be noted: person, 150 mg daily oral.
Description: as §1

Data set [4] has as its system Hashimoto's thyroiditis. Description: Case report Example 1: Hashimoto's thyroiditis, serum antithyroid peroxidase under erlotinib. Format: in vivo, human. To be noted: person; 150 mg daily oral; after one year; reduced from 1719 before treatment.
Description: as §1

The subject of data set [5] is NSCLC with a genetic mutation. Briefly: Case report Example 2: NSCLC in MS patient on erlotinib. Type of data set: in vivo, human. To be noted: person; oral 150 mg daily; after six months. How it is done:
(§2) They were placed on interferon β-1a. […], they developed weakness in their lower extremities and was switched to natalizumab. […] […], independent of their MS, they developed NSCLC with a genetic mutation. Natalizumab was discontinued and erlotinib was initiated at an oral dose of 150 mg daily. […] Brain MRIs with contrast two months prior to starting erlotinib, immediately prior to starting erlotinib, and after three and six months on erlotinib are unchanged.

For data set [6], the system named is MS. Briefly: Case report Example 2: course of MS (symptoms, brain MRI). Format: in vivo, human.
Description: A person was well, when they developed numbness and tingling in their lower extremities. A magnetic resonance imaging (MRI) of the brain, along with spinal fluid findings, were consistent with MS. […] From then, they were asymptomatic except for three exacerbations which also responded to intravenous methyl prednisone. They took no other medications for MS.
as §2

The test system of data set [7] is rheumatoid arthritis. Description: Example 3: patient with rheumatoid arthritis. Type of data set: in vivo, human. As to conditions: 150 mg daily for several weeks.
Description: A patient is diagnosed with rheumatoid arthritis. Erlotinib is administered in a dose of 150 mg daily for several weeks.
Data set [8] relates to Crohn's disease. Briefly: Example 4: patient with Crohn's disease. As to conditions: 150 mg daily for several weeks. Format: in vivo, human.
Description: A patient is diagnosed with Crohn's disease. Erlotinib is administered in a dose of 150 mg daily for several weeks.
Data set [9] has as its system multiple sclerosis. Briefly: Example 5: group of patients with multiple sclerosis, placebo controlled. Format: in vivo, human. As to conditions: erlotinib 150, gefitinib 250, icotinib 300 mg daily for several weeks, versus placebo. As for the experimental part:
A group of patients with multiple sclerosis is identified. The patients are administered erlotinib (150 mg daily), gefitinib (250 mg daily), icotinib (300 mg daily), or placebo in for several weeks. […] Following clinical improvement, the dose of erlotinib, gefitinb, or icotinib is reduced to a maintenance dose as low as 25 mg, 50 mg, or 75 mg daily, respectively.

The subject of data set [10] is insulin resistance. Description: Example 6: group of patients with insulin resistance, placebo controlled. Format: in vivo, human. As to conditions: erlotinib 150, gefitinib 250, icotinib 300 mg daily for several weeks, versus placebo. How it is done:
A group of patients with insulin resistance is identified. The patients are administered erlotinib (150 mg daily), gefitinib (250 mg daily), icotinib (300 mg daily), or placebo in for several weeks. […] Following clinical improvement, the dose of erlotinib, gefitinb, or icotinib is reduced to a maintenance dose as low as 25 mg, 50 mg, or 75 mg daily, respectively.

Data set [11] concerns psoriasis. Description: Example 7: group of patients with psoriasis, placebo controlled. Type of data set: in vivo, human. To be noted: erlotinib 150, gefitinib 250, icotinib 300 mg daily for several weeks, versus placebo. How it is done:
A group of patients with psoriasis is identified. The patients are administered erlotinib (150 mg daily), gefitinib (250 mg daily), icotinib (300 mg daily), or placebo in for several weeks. […] Following clinical improvement, the dose of erlotinib, gefitinb, or icotinib is reduced to a maintenance dose as low as 25 mg, 50 mg, or 75 mg daily, respectively.

The conditions of data set [12]: on the face, scalp, neck, and back; cited from earlier work.

With `C#Cc1cccc(Nc2ncnc3cc(OCCOC)c(OCCOC)cc23)c1` [erlotinib], in [1] (after seven months), the “evidence of NSCLC” value is recorded as “no evidence of NSCLC or psoriasis”. Besides, the severe back pain result in data set [1] (three weeks after starting) is “their pain abated”. Also, in [2] (after seven months), the evidence of psoriasis result is reported as “no evidence of NSCLC or psoriasis”. Moreover, in data set [2] (three weeks after starting), the psoriasis entry is given as “their psoriasis cleared”. The “insulin requirement / new medication to control diabetes” value in data set [3] (after seven months) was “remains off of insulin and has not required any new medication to control their diabetes”. Besides, the insulin requirement entry in data set [3] (after ten weeks) is “no longer required insulin”. Also, in [4], the “serum level of antithyroid peroxidase” value came to 366. In addition, the cancer status entry in data set [5] is given as “total remission”. In addition, in data set [6] (person with MS, oral 150 mg daily, after three and six months), the “enhancing lesions on brain MRI” value is listed as “no enhancing lesions”. Moreover, the “brain MRIs with contrast” value in data set [6] (person with MS, oral 150 mg daily, after three and six months versus before starting) is “unchanged”. Moreover, the clinical outcome in data set [7], in data set [8], in [9], in data set [10] and in data set [11] was “Clinical improvement is seen” throughout. Further, in data set [12], the “most common adverse effect” value was “mild to moderate reversible papulopustular skin eruption”.
For `COc1cc2ncnc(Nc3ccc(F)c(Cl)c3)c2cc1OCCCN1CCOCC1` [gefitinib], the clinical outcome in data set [9], in data set [10] and in data set [11] was “Clinical improvement is seen” in each case.
With `C#Cc1cccc(Nc2ncnc3cc4c(cc23)OCCOCCOCCO4)c1` [icotinib], the clinical outcome in data set [9], in data set [10] and in data set [11] was “Clinical improvement is seen” throughout.
As to methyl prednisone, in [6] (patient one, intravenous), the “response of MS at first presentation” value is given as “achieved total remission”. Besides, the “response of three MS exacerbations” value in data set [6] (patient, intravenous) is on record as “responded”.
For the compound natalizumab, the MS symptoms result in data set [6] (patient, since the switch) is “asymptomatic since that time”.
